{
  "source": "paper PMC6156363",
  "about": "“The Modulatory Role of CYP3A4 in Dictamnine-Induced Hepatotoxicity” (Frontiers in Pharmacology, 2018)",
  "key": {"[1]": {"test_system": "primary human hepatocytes (PHH)", "assay": "MTT cytotoxicity in primary human hepatocytes, with or without KTZ or RIF pre-incubation", "assay_type": "cell-based", "conditions": "1 mM DCF", "method": "All of the compounds were dissolved in DMSO with the final concentration of DMSO was less than 0.2% in the incubation system. The MTT assay was employed and the optical density (OD) value was measured at 490 nm with a microplate reader (BioTek Instruments, Winooski, VT, United States)."}, "[2]": {"test_system": "CYP3A4 OE HepG2 cells", "assay": "MTT cytotoxicity in stable CYP3A4 over-expressed HepG2 cells", "assay_type": "cell-based, human", "conditions": "DCF 400–2000 μM", "method": "(§1) Cells were allowed to grow in the selection medium for 4 weeks, at which time individual clonal expansions (clones) were visible. Each clone was transferred and tested for enzymatic activity by a quantitative polymerase chain reaction (Q-PCR), western blot analysis and determining hydroxylation of testosterone.\n(§2) The neutral red assay was performed to assess cell viability of NIH3T3 cells. […] After incubation, the neutral red reagent was added following the manufacturer’s instruction. The OD value was detected at 570 nm. The WT and CYP3A4 OE HepG2 and L02 were treated in the same manner as NIH3T3 cells, and cell viability was measured by MTT assay. Cell viability was calculated with the following equation (Eq. 1). OD value is presented as the mean ± SD from three independent replicate experiments.\n(§3) Cell viability (%) =[…]"}, "[3]": {"test_system": "CYP3A4 OE L02 cells", "assay": "MTT cytotoxicity in stable CYP3A4 over-expressed L02 cells", "assay_type": "cell-based, human", "conditions": "DCF 400–2000 μM", "method": "as §1, §2, §3"}, "[4]": {"test_system": "ICR mice", "assay": "Liver injury in mice, group A (DEX induction): liver/body weight, ALT, AST, H&E", "assay_type": "in vivo", "conditions": "individual mouse, liver H&E", "method": "(§4) Male adult ICR mice (20 ± 2 g) were supplied by the Model Animal Research Center of Nanjing University (Nanjing, China). All experiments and animal care were conducted in accordance with the Provision and General Recommendation of Chinese Experimental Animals Administration Legislation and were approved by the Science and Technology Department of Jiangsu Province [license number: SYXK (SU) 2016-0011]. The mice were housed in a controlled temperature and humidity of 22 ± 2°C and 55 ± 5%, respectively, and maintained on a 12 h light/dark cycle with free access to food and water. Mice were fastened for 12 h and free to water before treatment.\n(§5) Mice were randomly assigned into two groups for different treatment. The protocol was conducted as previously described with minor modification ([Iida et al., 2015]; [Li W. et al., 2016]). […] Blood and liver tissues were collected in 24 h following treatment. All the livers were quickly removed and the left lateral liver lobes were used for histopathological examinations.\nThe collected blood samples were allowed to clot at room temperature, followed by centrifugation at 4°C, 1,000 × g for 10 min. […] The sections were stained with hematoxylin and eosin (H&E), and finally evaluated by a pathologist using an optical microscope."}, "[5]": {"test_system": "ICR mice", "assay": "Liver injury in mice, group B (KTZ inhibition): liver/body weight, ALT, AST, H&E", "assay_type": "in vivo", "conditions": "individual mouse, liver H&E", "method": "as §4, §5\nThe collected blood samples were allowed to clot at room temperature, followed by centrifugation at 4°C, 1,000 × g for 10 min. The resulting sera were immediately sent for alanine transaminase (ALT) and aspartate aminotransferase (AST) assays to the laboratory in Jiangsu Province Hospital of Traditional Chinese and Western Medicine (Nanjing, China) on ice. The testing laboratory was authenticated with ISO15189 and the assay was performed in a Roche Cobas 8000 (ISE/701/701/502) automatic biochemical analyzer. Liver tissues were immediately fixed in 4% paraformaldehyde for at least 24 h, then paraffin-processed, and sectioned into 3-μm thick slices. The sections were stained with hematoxylin and eosin (H&E), and finally evaluated by a pathologist using an optical microscope."}, "[6]": {"test_system": "CYP3A11", "assay": "Hepatic CYP3A11 expression in mice by Q-PCR and Western blot", "assay_type": "in vivo, mouse", "conditions": "mice liver, KTZ 75 mg/kg i.p., vs control"}},
  "note": "“And” between values parts separate entries of the source, which are not always exact repeats. Identical values can stand only once.",
  "data": [
    {"compound": "O=C(O)Cc1ccccc1Nc1c(Cl)cccc1Cl", "note": "[DCF, diclofenac sodium]", "values": [
      {"measurement": "cell viability of PHH in the presence of KTZ", "setting": "[1]; 24 h, KTZ 10 μM", "value": "remarkably increased"},
      {"measurement": "cell viability of PHH pre-incubated with RIF", "setting": "[1]; RIF 20 μM", "value": "significantly decreased"},
      {"measurement": "cell viability in CYP3A4 OE HepG2 cells compared with WT cells", "setting": "[2]", "value": "greatly decreased"},
      {"measurement": "cell viability in CYP3A4 OE L02 cells compared with WT cells", "setting": "[3]", "value": "greatly decreased"}
    ]},
    {"compound": "C[C@@H]1C[C@H]2[C@@H]3CCC4=CC(=O)C=C[C@]4(C)[C@@]3(F)[C@@H](O)C[C@]2(C)[C@@]1(O)C(=O)CO", "note": "[DEX, Dexamethasone]", "values": [
      {"measurement": "Congestion (histopathologic score)", "setting": "[4]", "value": 1},
      {"measurement": "Scores (histopathologic, total)", "setting": "[4]", "value": "0 and 1"}
    ]},
    {"compound": "CC(=O)N1CCN(c2ccc(OCC3COC(Cn4ccnc4)(c4ccc(Cl)cc4Cl)O3)cc2)CC1", "note": "(stereo not shown) [KTZ, ketoconazole]", "values": [
      {"measurement": "Inflammatory cells (histopathologic score)", "setting": "[5]", "value": 0.5},
      {"measurement": "Scores (histopathologic, total)", "setting": "[5]", "value": "0 and 0.5"},
      {"measurement": "hepatocytes Degeneration (histopathologic score)", "setting": "[5]", "value": 0.5},
      {"measurement": "decrease in CYP3A11 expression", "setting": "[6]", "value": "about 20%"}
    ]}
  ]
}
